Experiments:
Assay type in all cases: in vivo
Aspergillus flavus [1] = assay: Aspergillus flavus pulmonary infection model in compromised mice, oral treatment; details: for Percent Survival After 11 Days / PERCENT SURVIVAL AFTER 5 DAYS (5D): CF-1 mice; for PERCENT SURVIVAL AFTER 5 DAYS (5D): head prints 50 mg/kg (third dose column, c3), in PEG-200 daily for 4 days
Aspergillus flavus [2] = assay: as above; details: for %SURVIVAL / %ANIMALS NEG: 18 days post infection; for %SURVIVAL: compromised CF-1 mice; for %ANIMALS NEG: negative = <10 colonies
Excerpt: The in vivo oral antifungal activity of the compounds of Example 23-26 were compared to those of itraconazole, fluconazole and saperconazole in an Aspergillus pulmonary infection model in mice. The procedure of David Loebenberg et al. entitled "Sch 42427, The Active Enantiomer of Antifungal agent Sch 39304: In Vitro and In Vivo Activity" Antimicrobial Agents and Chemotherapy (1992), 36 498-501 was used. The Aspergillus flavus pulmonary model was run in the following manner Male, CF-1 mice weighing 20 grams were compromised with cortisone acetate (100 mg/kg), administered subcutaneously, once daily for 3 days. In addition, to prevent bacterial disease, tetracycline HCL (300 mg/1) was added to the drinking water and given ad libitum. On day 2 of compromising, mice were infected in an inhalation chamber, first described by Piggot and Emmons in 1960 and modified by us. The chamber is a 1 liter pyrex, thick-walled flask with 8 tubular side-arms that extend into the flask. Each side-arm is a pyrex tube of 14 cm length, constricted to a 1 cm opening inside the flask. The bottom of the flask was covered with a malt extract agar medium on which a sporulating culture of A. flavus ATCC 24133 was grown for 13 days at room temperature. The top of the flask was closed with a #10 stopper through which passed a glass tube attached by rubber tubing to a 60 mL syringe. Mice were placed in each of the side arms and pushed to the bottoms so that their nares extended beyond the open end of the tube and over the agar. Cotton plugs were then inserted behind the mice to hold them in place. By pumping the 60 mL syringe twice, air was forced over the culture and produced a cloud of spores. Mice were exposed to the spore cloud for one minute. Within 15-30 minutes after exposure, a number of mice were sacrificed and lung tissue samples homogenized for culture to determine the number of inhaled conidia. Oral treatment began 24 h post-infection with doses of 5 to 250 mg of drug/kg in ethanol; vehicle (115 ml of Emulphor EL-719P, GAF, Wayne, NJ; and 5 ml of 20% w/v lactic acid per liter of water), 10:90 v/v, once daily for 4 days.
The procedure of Example 31 was used to compare the in vivo oral antifungal activity of (±)-5R/S-(cis)-4-[4-[4-[4-[[5-(2,4-difluorophenyl)-5-(1H-1,2,4-triazol-1-ylmethyl) tetrahydrofuran-3-yl]methoxy-phenyl-1-piperazinyl]phenyl]-2,4-dihydro-2[(R/S)-(1-methylpropyl)]-3H-1,2,4-triazol-3-one with (±)-2R/S-(cis)-1-[4-[[2-(2,4-difluorophenyl)-2-(1H-1,2,4-triazol-1-ylmethyl) tetrahydro-4-furanyl]methoxy]phenyl]-4-(1-methylethyl)piperazine of Example 68 of USP 5,039,676 in an Aspergillus pulmonary infection model described in Example 31. […]
The procedures of Examples 31 and 34 were used.

C. albicans C-43 = assay: Candida systemic model in CF1 mice infected IV with C. albicans C-43, oral treatment; details: for %SURVIVAL: day 4 post-infection; for CFUs (GM): day 4
Procedure: The compounds of Examples 23-26 and itraconazole, fluconazole, and saperconazole were tested for in vivo oral antifungal activity in a Candida systemic model using CF1 male mice , average weight 20 g, Harlan Sprague Dawley, Inc., Indianapolis, Ind. infected by IV injection into the tail vein of C. albicans C-43 (5 million CFUs). […] Oral efficacy was measured after four (4) days by percent survival and by the number of organisms remaining in the kidneys i.e., the Colony Forming Units (CFUs). The mice were sacrificed and the kidneys of individual mice were homogenized in sterile saline, diluted and spread onto Mycosel agar. Colony counts were determined after 48 hours at 37°C. For calculation of geometric means, mice that died during the experiment were considered to have 10^9 CFUs/kidneys (based on numerous previous experiments).

C. albicans C-65 = assay: Candida systemic model in normal and compromised CF1 mice infected with C. albicans C-65, oral treatment; details: for % S (Percent Survival): day 4 post-infection; for CFUs (GM): day 4, geometric mean of the logarithms of CFU in the kidneys
Procedure: The compounds of Examples 23-26 and itraconazole, fluconazole, and saperconazole were tested for in vivo oral antifungal activity in a Candida systemic model using CF1 male mice , average weight 20 g, Harlan Sprague Dawley, Inc., Indianapolis, Ind. infected by IV injection into the tail vein of C. albicans C-43 (5 million CFUs). The drugs were dissolved in polyethylene glycol-200 (PEG-200) and tested by orally administering 50, 25 and 10 mpk of each drug 4 hours post infection and once daily for 3 more days. Oral efficacy was measured after four (4) days by percent survival and by the number of organisms remaining in the kidneys i.e., the Colony Forming Units (CFUs). The mice were sacrificed and the kidneys of individual mice were homogenized in sterile saline, diluted and spread onto Mycosel agar. Colony counts were determined after 48 hours at 37°C. For calculation of geometric means, mice that died during the experiment were considered to have 10^9 CFUs/kidneys (based on numerous previous experiments).
The compounds of Examples 23-24 and itraconazole, fluconazole, were tested for in vivo oral antifungal anctivity in a Candida systemic model using normal and compromised CF1 mice infected with C. albicans C-65 (5 million CFUs). The procedure of Example 33 was followed. The drugs were dissolved in polyethylene glycol-200 ("PEG-200) at room temperature and tested by orally administering 100, 50, 25, 10 and 1 mpk of each drug. Oral efficacy was measured by percent survival and by the number of organisms remaining in the kidneys (CFUs) after four days. […] The pharmaceutical composition of the preferred compound of formula IIb of Eample 24 in hydroxypropyl beta cyclodextrin ("HPβCD") having 7.4 hydroxypropyl groups per HPβCD (obtained from Pharmatec, Inc., Alachua, FL 32615) was prepared by admixing the appropriate amount of the compound IIa with a 40% (w/v) solution of HPβCD (4 g of HPβCD per 10 mL of purified water). Gentle heating was used to form a clear solution. For the 10 mpk dose, 12 mg of Ha was added to 6 mL of a 40% w/v solution of HPβCD. For dilutions, sterile water was added to the solution with mixing. The pharmaceutical composition of itraconazole and the Pharmatec HPβCD described above was prepared as follows. Propylene glycol (10 mL) was admixed with 0.95 mL of concentrated HCI at 40°-45°C with stirring. Itraconazole (2.5 g) was added thereto and stirring was continued until homogeneous. The mixture so formed was cooled to 20° to 30°C and admixed with a solution of 60 g of HPβCD in 40 mL of purified water to form a clear solution. The pH was adjusted to a value of 1.9-2.1 with 10N NaOH and sufficient purified water added (with mixing) to a final volume of 100 mL. For dilutions, sterile water was added to the itraconazole - HPβCD.

[3] = 50 mg/kg PO in PEG-200, OD for 4 days
[4] = 100 mg/kg PO in PEG-200, OD for 4 days
[5] = 200 mg/kg PO in PEG-200, OD for 4 days
[6] = 50 MPK PO in PEG-200, 1 a day x 4 days
[7] = 50 MPK PO in PEG-200, geometric mean of the logarithms of CFU remaining in the kidneys (dead mice counted as 10^9)
[8] = 33 mg/kg PO once a day for 4 days
[9] = 66 mg/kg PO once a day for 4 days
[10] = 100 mg/kg PO once a day for 4 days

**Q.** How did the “Percent Survival After 11 Days” value (Aspergillus flavus [1]; [3]) turn out when CCC(C)n1ncn(-c2ccc(N3CCN(c4ccc(OC[C@@H]5CO[C@@](Cn6cncn6)(c6ccc(F)cc6F)C5)cc4)CC3)cc2)c1=O (mixture of isomers) [Compound 1 of Table III of Examples 34, (±)-5R/S-(cis)-4-[4-[4-[4-[[5-(2,4-difluorophenyl)-5-(1H-1,2,4-triazol-1-ylmethyl)tetrahydrofuran-3-yl]methoxyphenyl-1-piperazinyl]phenyl]-2,4-dihydro-2[(RS)-(1-methylpropyl)]-3H-1,2,4-triazol-3-one] was run?
**A.** 16.7

**Q.** What about the “Percent Survival After 11 Days” value (Aspergillus flavus [1]; [4]) of the same molecule?
**A.** 41.7

**Q.** And the “Percent Survival After 11 Days” value (Aspergillus flavus [1]; [5])?
**A.** 50.0

**Q.** And the “PERCENT SURVIVAL AFTER 5 DAYS (5D)” value (Aspergillus flavus [1])?
**A.** 50

**Q.** What does the source list for CC(C)N1CCN(c2ccc(OC[C@@H]3CO[C@@](Cn4cncn4)(c4ccc(F)cc4F)C3)cc2)CC1 (racemic) [Example 68 of US Patent 5,039,676, (±)-2R/S-(cis)-1-[4-[[2-(2,4-difluorophenyl)-2-(1H-1,2,4-triazol-1-ylmethyl)tetrahydro-4-furanyl]methoxy]phenyl]-4-(1-methylethyl)piperazine, reference compound]?
**A.** oral activity in the Aspergillus pulmonary mouse model (Aspergillus flavus [2]; PO, result in words (active / inactive)): inactive; Percent Survival After 11 Days (Aspergillus flavus [1]; [3]): 0; Percent Survival After 11 Days (Aspergillus flavus [1]; [4]): 0; Percent Survival After 11 Days (Aspergillus flavus [1]; [5]): 0

**Q.** What does the source list for CC[C@H](C)n1ncn(-c2ccc(N3CCN(c4ccc(OC[C@H]5CO[C@](Cn6cncn6)(c6ccc(F)cc6F)C5)cc4)CC3)cc2)c1=O [Example 25, (+)-[(5S)-cis]-4-[4-[4-[4-[[5-(2,4-Difluorophenyl)-5-(1H-1,2,4-triazol-1-ylmethyl)tetrahydrofuran-3-yl]methoxy]phenyl]-1-piperazinyl]phenyl]-2,4-dihydro-2-[(1S)-(1-methylpropyl)]-3H-1,2,4-triazol-3-one]?
**A.** %SURVIVAL (C. albicans C-43; 10 MPK PO in PEG-200, 1 a day x 4 days): 0%; CFUs (GM) (C. albicans C-43; 10 MPK PO in PEG-200, geometric mean of the logarithms of CFU remaining in the kidneys (dead mice counted as 10^9)): 9.00; %SURVIVAL (C. albicans C-43; 25 MPK PO in PEG-200, 1 a day x 4 days): 0%; CFUs (GM) (C. albicans C-43; 25 MPK PO in PEG-200, geometric mean of the logarithms of CFU remaining in the kidneys (dead mice counted as 10^9)): 9.00; %SURVIVAL (C. albicans C-43; [6]): 0%; CFUs (GM) (C. albicans C-43; [7]): 9.00; %SURVIVAL (Aspergillus flavus [2]; [8]): 0%; %ANIMALS NEG (Aspergillus flavus [2]; [8]): 0%; %SURVIVAL (Aspergillus flavus [2]; [9]): 0%; %ANIMALS NEG (Aspergillus flavus [2]; [9]): 0%; %SURVIVAL (Aspergillus flavus [2]; [10]): 10%; %ANIMALS NEG (Aspergillus flavus [2]; [10]): 0%; %SURVIVAL (Aspergillus flavus [1]; 33 mg/kg PO [3RX/DAY] for 4 days, 18 days post infection, compromised CF-1 mice): 20%; %ANIMALS NEG (Aspergillus flavus [1]; 33 mg/kg PO [3RX/DAY] for 4 days, 18 days post infection, negative = <10 colonies): 10%

**Q.** With CCC(C)n1ncn(-c2ccc(N3CCN(c4ccc(OC[C@H]5CO[C@](Cn6cncn6)(c6ccc(F)cc6F)O5)cc4)CC3)cc2)c1=O (some centres unmarked) [Saperconazole, reference compound] as the molecule, how does the “%SURVIVAL” value (C. albicans C-43; [6]) read?
**A.** 20%

**Q.** And the “CFUs (GM)” value (C. albicans C-43; [7])?
**A.** 8.20

**Q.** And the “%SURVIVAL” value (Aspergillus flavus [2]; [10])?
**A.** 0%

**Q.** And the “%ANIMALS NEG” value (Aspergillus flavus [2]; [10])?
**A.** 0%

**Q.** What about the “PERCENT SURVIVAL AFTER 5 DAYS (5D)” value (Aspergillus flavus [1]) of the same molecule?
**A.** 50

**Q.** For OC(Cn1cncn1)(Cn1cncn1)c1ccc(F)cc1F [Fluconazole, reference compound], which “%SURVIVAL” value (C. albicans C-43; 1 MPK PO in ETOH/Mon, 1 a day x 4 days) is on record?
**A.** 70%

**Q.** What about the “CFUs (GM)” value (C. albicans C-43; 1 MPK PO in ETOH/Mon, geometric mean of the logarithms of CFU remaining in the kidneys) of the same molecule?
**A.** 6.58

**Q.** What about the “%SURVIVAL” value (C. albicans C-43; 10 MPK PO in ETOH/Mon, 1 a day x 4 days) of the same molecule?
**A.** 90%

**Q.** And the “CFUs (GM)” value (C. albicans C-43; 10 MPK PO in ETOH/Mon, geometric mean of the logarithms of CFU remaining in the kidneys)?
**A.** 5.68

**Q.** And the “%SURVIVAL” value (Aspergillus flavus [2]; [10])?
**A.** 10%

**Q.** And the “%ANIMALS NEG” value (Aspergillus flavus [2]; [10])?
**A.** 0%

**Q.** What about the “% S (Percent Survival)” value (C. albicans C-65; 600 Rads Mice (compromised), 10 MPK PO in PEG-200, 1/day x 4 days) of the same molecule?
**A.** 20%

**Q.** And the “CFUs (GM)” value (C. albicans C-65; 600 Rads Mice (compromised), 10 MPK PO in PEG-200)?
**A.** 8.01

**Q.** What about the “% S (Percent Survival)” value (C. albicans C-65; 600 Rads Mice (compromised), 25 MPK PO in PEG-200, 1/day x 4 days) of the same molecule?
**A.** 50%

**Q.** And the “CFUs (GM)” value (C. albicans C-65; 600 Rads Mice (compromised), 25 MPK PO in PEG-200)?
**A.** 6.91

**Q.** What about the “% S (Percent Survival)” value (C. albicans C-65; Normal Mice, 1 MPK PO in PEG-200, 1/day x 4 days) of the same molecule?
**A.** 60%

**Q.** And the “CFUs (GM)” value (C. albicans C-65; Normal Mice, 1 MPK PO in PEG-200)?
**A.** 5.81

**Q.** And the “% S (Percent Survival)” value (C. albicans C-65; Normal Mice, 10 MPK PO in PEG-200, 1/day x 4 days)?
**A.** 80%

**Q.** And the “CFUs (GM)” value (C. albicans C-65; Normal Mice, 10 MPK PO in PEG-200)?
**A.** 5.35
